Measurements published in BindingDB's records for patent US20240409542 (Sitryx Therapeutics, 2024).

Biological target: Pyruvate kinase PKM (Homo sapiens, UniProt P14618)
Assay: Activation Assay Measuring In Vitro Activation of Recombinant Human PKM2
Experimental: Human PKM2 was diluted into Assay Buffer comprising 50 mM imidazole, 50 mM KCl, 7 mM MgCl2, 0.01% Tween20, 0.05% BSA (pH 7.2) to a final concentration of 5 pM. Enzyme-Assay Buffer mix was dispensed into a 384-well shallow-well white-walled plate (PerkinElmer) and Test Compounds added by acoustic dispense (Echo , Labcyte Inc.). […] Kinase-Glo Plus reagent was added to each well and the plates incubated for a further 15 minutes on an orbital shaker in the dark (300 rpm, 26° C.) before luminescence measurement on a plate reader (PHERAstar FSX, BMG Labtech).

Pyruvate kinase PKM, sequence (P14618 whole entry): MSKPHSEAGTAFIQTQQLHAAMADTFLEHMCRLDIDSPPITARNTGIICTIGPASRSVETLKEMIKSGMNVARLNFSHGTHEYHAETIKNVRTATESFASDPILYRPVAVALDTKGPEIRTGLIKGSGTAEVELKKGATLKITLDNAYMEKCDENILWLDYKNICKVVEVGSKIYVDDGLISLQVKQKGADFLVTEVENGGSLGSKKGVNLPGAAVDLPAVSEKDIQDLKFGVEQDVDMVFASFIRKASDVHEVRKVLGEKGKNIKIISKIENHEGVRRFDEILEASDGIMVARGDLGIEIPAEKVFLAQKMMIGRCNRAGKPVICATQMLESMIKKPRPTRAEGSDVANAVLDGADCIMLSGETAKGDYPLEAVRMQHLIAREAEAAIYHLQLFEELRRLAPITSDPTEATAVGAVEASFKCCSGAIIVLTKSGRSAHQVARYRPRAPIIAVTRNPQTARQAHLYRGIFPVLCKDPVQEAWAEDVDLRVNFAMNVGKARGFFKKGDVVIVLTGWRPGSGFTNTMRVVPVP

EC50: 354 nM
SMILES: Cn1c2c(c3cnn(Cc4cccc(C(C)(C)O)c4)c(=O)c31)CCN(S(C)(=O)=O)C2 [US20240409542, Example 33]
